Measurements reported in patent US20160002204A1 (Board of Regents, The University of Texas System, priority 2014, published 2016).

Tests used:
[1] = biological target: T1, GLS1 (purified recombinant human GAC) (Homo sapiens, UniProt O94925); assay: GLS1 enzymatic activity assay (dual-coupled, Amplex UltraRed/resorufin); type: biochemical
T1 sequence (O94925 55-598 isoform O94925-3 limits assumed): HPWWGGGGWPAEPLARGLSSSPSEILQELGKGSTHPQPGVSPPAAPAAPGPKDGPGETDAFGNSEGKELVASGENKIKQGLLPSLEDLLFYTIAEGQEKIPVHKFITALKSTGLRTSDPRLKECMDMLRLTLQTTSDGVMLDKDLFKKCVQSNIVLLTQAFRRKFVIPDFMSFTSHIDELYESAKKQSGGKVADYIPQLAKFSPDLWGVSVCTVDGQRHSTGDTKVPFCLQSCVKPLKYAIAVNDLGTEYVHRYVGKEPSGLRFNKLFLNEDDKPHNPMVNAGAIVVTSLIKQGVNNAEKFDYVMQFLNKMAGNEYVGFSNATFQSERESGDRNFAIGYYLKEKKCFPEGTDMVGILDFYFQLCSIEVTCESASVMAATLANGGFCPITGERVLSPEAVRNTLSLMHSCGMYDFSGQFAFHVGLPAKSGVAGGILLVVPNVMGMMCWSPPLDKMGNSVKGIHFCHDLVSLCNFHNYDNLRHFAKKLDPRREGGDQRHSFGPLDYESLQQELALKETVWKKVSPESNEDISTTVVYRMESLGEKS
Outline: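 In this coupled fluorometric format, phosphate-activated GAC (2 nM, 50 mM phosphate) is pre-exposed to compound for 10 min before 1 mM glutamine addition. Product is tracked as resorufin (530/590 nm) over time or at 20 min, and potency is derived by logistic fitting.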

A549 cells = assay: A549 proliferation (viability) assay, Cell Titer Fluor, 72 hours; type: cell-based; settings: Homo sapiens
Outline: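 Fluorescence read-out (Cell Titer Fluor, 30 min at 37 °C after reagent) after 72 h compound exposure of A549 cells; EC50 by four-parameter logistic curve fit. Cells: 1000/well, RPMI 1640 + 10% dialyzed FBS, 0.5% DMSO final.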

Row | SMILES | IC50 [1] [nM] | EC50 (A549 cells) [nM]
1 | O=C(CC1CC1)Nc1ccn(CCCCn2cc(C(=O)NCc3cccc(C(F)(F)F)c3)nn2)c(=O)c1 [Example 154, 1-{4-[4-(2-cyclopropylacetamido)-2-oxo-1,2-dihydropyridin-1-yl]butyl}-N-{[3-(trifluoromethyl)phenyl]methyl}-1H-1,2,3-triazole-4-carboxamide] | < 100 | 500 to 5000
2 | O=C(Nc1ccn(CCCCn2cc(C(=O)NCc3cccc(OC(F)(F)F)c3)nn2)c(=O)c1)OCc1cccc(OC(F)(F)F)c1 [Example 64, [3-(trifluoromethoxy)phenyl]methyl N-(2-oxo-1-{4-[4-({[3-(trifluoro-methoxy)phenyl]methyl}carbamoyl)-1H-1,2,3-triazol-1-yl]butyl}-1,2-dihydropyridin-4-yl)carbamate] | < 100 | 100 to 500
3 | Cc1ccc(CNC(=O)c2cn(CC(F)CCn3ccc(NC(=O)CC4CCCC4)cc3=O)nn2)cn1 (centres unmarked) [Example 199, 1-{4-[4-(2-cyclopentylacetamido)-2-oxo-1,2-dihydropyridin-1-yl]-2-fluorobutyl}-N-[(6-methylpyridin-3-yl)methyl]-1H-1,2,3-triazole-4-carboxamide] | < 100 | < 100
4 | CNC(=O)c1cn(CC(F)CCn2ccc(NC(=O)CN3CCN(C(=O)OC(C)(C)C)CC3)cc2=O)nn1 (centres unmarked) [Example 403, tert-butyl 4-{[(1-{3-fluoro-4-[4-(methylcarbamoyl)-1H-1,2,3-triazol-1-yl]butyl}-2-oxo-1,2-dihydropyridin-4-yl)carbamoyl]methyl}piperazine-1-carboxylate] | 100 to 500 | 500 to 5000
5 | CC(C(=O)Nc1ccn(CCC(F)Cn2cc(C(=O)NCc3cc(C(F)(F)F)ccn3)nn2)c(=O)c1F)N1CCCCC1 (centres unmarked) [Example 345, 1-(2-fluoro-4-{3-fluoro-2-oxo-4-[2-(piperidin-1-yl)propanamido]-1,2-dihydropyridin-1-yl}butyl)-N-{[4-(trifluoromethyl)pyridin-2-yl]methyl}-1H-1,2,3-triazole-4-carboxamide] | 100 to 500 | < 100
6 | O=C(Cc1ccccc1)Nc1ccc(CCCCn2ccc(NC(=O)OC3CCCCC3)nc2=O)nn1 [Example 95, cyclohexyl N-(2-oxo-1-{4-[6-(2-phenylacetamido)pyridazin-3-yl]butyl}-1,2-dihydropyrimidin-4-yl)carbamate] | < 100 | < 100
7 | O=C(Cc1ccccn1)Nc1ccn(CCCCc2nnc(C(=O)NCc3cc(OC(F)(F)F)ccc3F)s2)c(=O)c1 [Example 461, N-{[2-fluoro-5-(trifluoromethoxy)phenyl]methyl}-5-(4-{2-oxo-4-[2-(pyridin-2-yl)acetamido]-1,2-dihydropyridin-1-yl}butyl)-1,3,4-thiadiazole-2-carboxamide] | < 100 | 500 to 5000
8 | CO[C@@H](C(=O)Nc1ccn(CCC(F)Cn2cc(C(=O)NCc3ccc(C)nc3)nn2)c(=O)c1F)c1ccccc1 (stereo partly drawn) [Example 313, 1-(2-fluoro-4-{3-fluoro-4-[(2R)-2-methoxy-2-phenylacetamido]-2-oxo-1,2-dihydropyridin-1-yl}butyl)-N-[(6-methylpyridin-3-yl)methyl]-1H-1,2,3-triazole-4-carboxamide] | < 100 | 100 to 500
9 | O=C(Nc1ccn(CCC(F)Cn2cc(C(=O)NCc3cccc(OC(F)(F)F)c3)nn2)c(=O)c1F)C(=O)N1CCOCC1 (centres unmarked) [Example 417, 1-(2-fluoro-4-{3-fluoro-4-[2-(morpholin-4-yl)-2-oxoacetamido]-2-oxo-1,2-dihydropyridin-1-yl}butyl)-N-{[3-(trifluoromethoxy)phenyl]methyl}-1H-1,2,3-triazole-4-carboxamide] | 100 to 500 | 500 to 5000
10 | O=C(CC1CCCCC1)Nc1ccn(CCCCc2nnc(C(=O)NCc3ccccn3)s2)c(=O)c1 [Example 447, 5-{4-[4-(2-cyclohexylacetamido)-2-oxo-1,2-dihydropyridin-1-yl]butyl}-N-(pyridin-2-ylmethyl)-1,3,4-thiadiazole-2-carboxamide] | < 100 | < 100
11 | O=C(CN1CCCCC1)Nc1ccn(CCC(F)Cn2cc(C(=O)NCc3cc(C(F)(F)F)ccn3)nn2)c(=O)c1F (centres unmarked) [Example 344, 1-(2-fluoro-4-{3-fluoro-2-oxo-4-[2-(piperidin-1-yl)acetamido]-1,2-dihydropyridin-1-yl}butyl)-N-{[4-(trifluoromethyl)pyridin-2-yl]methyl}-1H-1,2,3-triazole-4-carboxamide] | 100 to 500 | < 100
12 | CC(C)(C)OC(=O)N1CCN(CC(=O)Nc2ccn(CCC(F)Cn3cc(C(N)=O)nn3)c(=O)c2)CC1 (centres unmarked) [Example 407, tert-butyl 4-[({1-[4-(4-carbamoyl-1H-1,2,3-triazol-1-yl)-3-fluorobutyl]-2-oxo-1,2-dihydropyridin-4-yl}carbamoyl)methyl]piperazine-1-carboxylate] | 500 to 5000 | > 5000
13 | Cc1ccc(CNC(=O)c2nnc(CCCCn3ccc(NC(=O)CC4CCCCC4)cc3=O)s2)cn1 [Example 443, 5-{4-[4-(2-cyclohexylacetamido)-2-oxo-1,2-dihydropyridin-1-yl]butyl}-N-[(6-methylpyridin-3-yl)methyl]-1,3,4-thiadiazole-2-carboxamide] | < 100 | < 100
14 | CC(C)CC(=O)Nc1ccn(CCCCn2cc(C(=O)NCC3CCCCC3)nn2)c(=O)c1 [Example 39, N-(cyclohexylmethyl)-1-{4-[4-(3-methylbutanamido)-2-oxo-1,2-dihydropyridin-1-yl]butyl}-1H-1,2,3-triazole-4-carboxamide] | 100 to 500 | 500 to 5000

Next, values leading:

Row | IC50 [1] [nM] | EC50 (A549 cells) [nM] | SMILES
15 | < 100 | 500 to 5000 | O=C(Cc1cccnc1Cl)Nc1ccn(CCC(F)Cn2cc(C(=O)NCc3cccc(OC(F)(F)F)c3)nn2)c(=O)c1 (centres unmarked) [Example 236, 1-(4-{4-[2-(2-chloropyridin-3-yl)acetamido]-2-oxo-1,2-dihydropyridin-1-yl}-2-fluorobutyl)-N-{[3-(trifluoromethoxy)phenyl]methyl}-1H-1,2,3-triazole-4-carboxamide]
16 | 100 to 500 | 500 to 5000 | O=C(CC1CCNCC1)Nc1ccn(CCC(F)Cn2cc(C(=O)NCc3cccc(OC(F)(F)F)c3)nn2)c(=O)c1F (centres unmarked) [Example 299, 1-(2-fluoro-4-{3-fluoro-2-oxo-4-[2-(piperidin-4-yl)acetamido]-1,2-dihydropyridin-1-yl}butyl)-N-{[3-(trifluoromethoxy)phenyl]methyl}-1H-1,2,3-triazole-4-carboxamide]
17 | < 100 | 100 to 500 | O=C(Cc1ccccn1)Nc1ccn(CCC(F)Cn2cc(C(=O)NCc3cc(OC(F)(F)F)ccc3F)nn2)c(=O)c1 (centres unmarked) [Example 182, 1-(2-fluoro-4-{2-oxo-4-[2-(pyridin-2-yl)acetamido]-1,2-dihydropyridin-1-yl}butyl)-N-{[2-fluoro-5-(trifluoromethoxy)phenyl]methyl}-1H-1,2,3-triazole-4-carboxamide]
18 | < 100 | 500 to 5000 | N#Cc1cccc(CC(=O)Nc2ccn(CCC(F)Cn3cc(C(=O)NCc4cccc(OC(F)(F)F)c4)nn3)c(=O)c2)c1 (centres unmarked) [Example 235, 1-(4-{4-[2-(3-cyanophenyl)acetamido]-2-oxo-1,2-dihydropyridin-1-yl}-2-fluorobutyl)-N-{[3-(trifluoromethoxy)phenyl]methyl}-1H-1,2,3-triazole-4-carboxamide]
19 | < 100 | 500 to 5000 | Cc1ccc(CNC(=O)c2cn(CCCCn3ccc(NC(=O)Cc4cccc(OC(F)(F)F)c4)cc3=O)nn2)cn1 [Example 70, N-[(6-methylpyridin-3-yl)methyl]-1-[4-(2-oxo-4-{2-[3-(trifluoromethoxy)phenyl]acetamido}-1,2-dihydropyridin-1-yl)butyl]-1H-1,2,3-triazole-4-carboxamide]
20 | < 100 | 100 to 500 | CC(C)(C)OC(=O)NCc1cccc(CC(=O)Nc2ccn(CCC(F)Cn3cc(C(=O)NCc4cccc(OC(F)(F)F)c4)nn3)c(=O)c2)c1 (centres unmarked) [Example 222, tert-butyl N-[(3-{[(1-{3-fluoro-4-[4-({[3-(trifluoro-methoxy)phenyl]methyl}carbamoyl)-1H-1,2,3-triazol-1-yl]butyl}-2-oxo-1,2-dihydropyridin-4-yl)carbamoyl]methyl}phenyl)methyl] carbamate]
21 | < 100 | < 100 | O=C(Cc1ccccc1)Nc1ccn(CCC(F)Cn2cc(C(=O)NCc3cccc(OC(F)(F)F)c3)nn2)c(=O)c1 (centres unmarked) [Example 134, 1-{2-fluoro-4-[2-oxo-4-(2-phenylacetamido)-1,2-dihydropyridin-1-yl]butyl}-N-{[3-(trifluoromethoxy)phenyl]methyl}-1H-1,2,3-triazole-4-carboxamide]
22 | < 100 | 500 to 5000 | CC(=O)N1CCC(CC(=O)Nc2ccn(CCC(F)Cn3cc(C(=O)NCc4cccc(OC(F)(F)F)c4)nn3)c(=O)c2)CC1 (centres unmarked) [Example 244, 1-(4-{4-[2-(1-acetylpiperidin-4-yl)acetamido]-2-oxo-1,2-dihydropyridin-1-yl}-2-fluorobutyl)-N-{[3-(trifluoromethoxy)phenyl]methyl}-1H-1,2,3-triazole-4-carboxamide]
